The results in this text go back to publication PMC11946187 (Viruses, 2025).

The term IC50 denotes the concentration that inhibits the measured activity by half.

Experiment [1] addresses SFTSV L protein (RNA synthesis) (Dabie bandavirus, UniProt I0DF35). Type of experiment: biochemical, severe fever with thrombocytopenia syndrome virus.
In experiment [2] the test system is IBV RdRp (RNA synthesis). Type of experiment: biochemical, influenza B virus.
The target of experiment [3] is IBV endonuclease (full-length IBV RdRp complex PA/PB1/PB2) (Influenza B virus, UniProt Q5V8Z9). Put plainly: biochemical.
The subject of experiment [4] is SNV L protein (RNA synthesis). In kind it is biochemical, Sin Nombre virus.
In experiment [5] the target is SFTSV endonuclease (full-length L protein) (Dabie bandavirus, UniProt I0DF35). The experiment can be described thus: biochemical. Set-up: species or system severe fever with thrombocytopenia syndrome virus.
Experiment [6] addresses SNV endonuclease (full-length L protein) (Sin Nombre orthohantavirus, UniProt A0A059WLS4). Put plainly: biochemical. More on the design: species or system Sin Nombre virus.

The structures appear in SMILES notation. “Also recorded” adds a separate entry of the source. Read-outs that look alike come from different tables or passages of the source. Where only a bound is given, the exact number is not on record here.

Consider `O=C1c2c(O)c(=O)ccn2N([C@@H]2c3ccccc3SCc3c2ccc(F)c3F)[C@@H]2COCCN12` [BXA, Baloxavir acid, reference compound], for which, in experiment [1], the “inhibition of RNA synthesis by SFTSV” value is recorded as “lack of inhibition of; also recorded: did not inhibit RNA synthesis”. The “inhibition of RNA synthesis by IBV” value in experiment [2] is given as “lack of inhibition of; also recorded: did not inhibit RNA synthesis”. Moreover, the IC50 in experiment [3] (IC50 (μM) IBV (Figure 7B)) is 0.21 ± 0.006 µM; in experiment [3] (IC50, endonuclease activity of IBV) it was 0.209 µM; in experiment [5] (IC50 (μM) SFTSV (Figure 7B)), 16 µM; in experiment [5] (IC50, SFTSV endonuclease activity), 16.5 µM; in experiment [6] (IC50 (μM) SNV (Figure 7B)), over 100 µM; in experiment [6] (IC50, SNV endonuclease activity), 622 µM. For the same molecule, the “inhibition of RNA synthesis by SNV” value in experiment [4] was “lack of inhibition of; also recorded: did not inhibit RNA synthesis”. For the same molecule, the “concentration from which inhibition of SNV endonuclease became evident” value in experiment [6] is recorded as ~ 250 µM.

As for `O=C1c2c(O)c(=O)ccn2N(C2c3ccccc3SCc3c2ccc(F)c3F)C2COCCN12` [kCOT909, (R)-12-((R)-7,8-difluoro-6,11-dihydrodibenzo[b,e]thiepin-11-yl)-7-hydroxy-3,4,12,12a-tetrahydro-1H-[1,4]oxazino[3,4c]pyrido[2,1-f] [1,2,4]triazine-6,8-dione], in experiment [1], the “inhibition of RNA synthesis by SFTSV” value was “lack of inhibition of RNA synthesis”. The “inhibition of RNA synthesis by IBV” value in experiment [2] was “lack of inhibition of RNA synthesis”. Further, the IC50 in experiment [3] (IC50 (μM) IBV (Figure 7B)) is 0.32 ± 0.006 µM; in experiment [5] (IC50 (μM) SFTSV (Figure 7B)), over 100 µM; in experiment [6] (IC50 (μM) SNV (Figure 7B)), over 100 µM. Also, in experiment [4], the “inhibition of RNA synthesis by SNV” value is on record as “lack of inhibition of RNA synthesis”.

Turning to `O=C1c2c(O)c(=O)ccn2N([C@@H]2c3ccccc3CSc3ccccc32)[C@@H]2COCCN12` [kCOT912, (R)-12-((R)-6,11-dihydrodibenzo[b,e]thiepin-11-yl)-7-hydroxy-3,4,12,12a-tetrahydro-1H-[1,4]oxazino[3,4-c]pyrido[2,1-f][1,2,4]triazine-6,8-dione], in experiment [1], the “inhibition of RNA synthesis by SFTSV” value is “lack of inhibition of RNA synthesis”. The “inhibition of RNA synthesis by IBV” value in experiment [2] is “lack of inhibition of RNA synthesis”. Further, the IC50 in experiment [3], in experiment [5] (IC50 (μM) SFTSV (Figure 7B)) and in experiment [6] (IC50 (μM) SNV (Figure 7B)) was over 100 µM each time. Moreover, the “inhibition of RNA synthesis by SNV” value in experiment [4] was “lack of inhibition of RNA synthesis”.

As for `O=C(O)c1cn2c(c(O)c1=O)C(=O)N1CCOC[C@H]1N2[C@@H]1c2ccccc2SCc2c1ccc(F)c2F` [kCOT923, (R)-12-((S)-7,8-difluoro-6,11-dihydrodibenzo[b,e]thiepin-11-yl)-7-hydroxy-6,8-dioxo-3,4,6,8,12,12a-hexahydro-1H-[1,4]oxazino[3,4-c]pyrido[2,1-f][1,2,4]triazine-9-carboxylic acid], the “inhibition of RNA synthesis by SFTSV” value in experiment [1] is given as “lack of inhibition of RNA synthesis”. Moreover, the “inhibition of RNA synthesis by IBV” value in experiment [2] is given as “lack of inhibition of RNA synthesis”. For the same molecule, the IC50 amounted to 0.41 ± 0.02 µM in experiment [3], 41 µM in experiment [5] (IC50 (μM) SFTSV (Figure 7B)) and 13 ± 3 µM in experiment [6] (IC50 (μM) SNV (Figure 7B)). Moreover, the “inhibition of RNA synthesis by SNV” value in experiment [4] was “lack of inhibition of RNA synthesis”.

As to `CC(C)N1CN([C@H]2c3ccccc3SCc3c2ccc(F)c3F)n2ccc(=O)c(O)c2C1=O` [kCPF855], the “inhibition of RNA synthesis by SFTSV” value in experiment [1] was “lack of inhibition of RNA synthesis”. The “inhibition of RNA synthesis by IBV” value in experiment [2] is on record as “lack of inhibition of RNA synthesis”. Further, the IC50 in experiment [3] was 0.71 ± 0.03 µM; in experiment [5] (IC50 (μM) SFTSV (Figure 7B)) it was over 100 µM; in experiment [6] (IC50 (μM) SNV (Figure 7B)), over 100 µM. Besides, in experiment [4], the “inhibition of RNA synthesis by SNV” value is recorded as “lack of inhibition of RNA synthesis”.
